Literature values in patent US9511035B2, “Java ginger extract and manufacturing method” (Hosoda SHC Inc., priority 2013, dated 2016).

Assays:
[1] = test system: rat adrenal medullary pheochromocytoma (PC12 cell); details: stated in words; for NGF-like action: no data in this patent, earlier finding of the inventors (JP 2010-90053 A)
[2] = target: platelet-activating factor (Homo sapiens, UniProt P25105); details: disclosed in JP 2003-313116 A
tyrosinase = details: disclosed in JP 2003-313116 A
chemokine expression = details: disclosed in JP 2003-306438 A

Sequence of platelet-activating factor (P25105 whole entry): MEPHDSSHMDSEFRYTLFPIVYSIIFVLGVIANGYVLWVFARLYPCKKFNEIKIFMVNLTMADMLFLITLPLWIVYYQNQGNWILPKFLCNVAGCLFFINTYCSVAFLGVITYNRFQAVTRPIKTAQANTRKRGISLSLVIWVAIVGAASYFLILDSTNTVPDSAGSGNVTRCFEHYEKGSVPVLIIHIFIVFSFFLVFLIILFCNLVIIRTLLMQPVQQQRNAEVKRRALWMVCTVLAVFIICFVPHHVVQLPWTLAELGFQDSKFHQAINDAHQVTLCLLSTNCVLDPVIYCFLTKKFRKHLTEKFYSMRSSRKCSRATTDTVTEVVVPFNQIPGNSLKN

SMILES | NGF-like action [1] | platelet-activating factor antagonism [2] | tyrosinase activity-inhibiting action (tyrosinase) | chemokine expression-inhibiting action (chemokine expression) | process extension activity ([1]; PC12 cell) | differentiation of PC12 cell ([1]; as is the case with the NGF) | NGF-like action (neuronal process extension action) relative to NGF ([1]; comparison with NGF)
C=C/C=C/c1ccc(OC)c(OC)c1 [monomer, phenyl butenoid monomer, reference compound] | no NGF-like action | – | – | – | – | – | –
COc1ccc(/C=C/C2CCC=CC2c2ccc(OC)c(OC)c2)cc1OC (centres unmarked) [phenyl butenoid dimer] | showed an NGF-like action | platelet-activating factor antagonism | tyrosinase activity-inhibiting action | chemokine expression-inhibiting action | shows a process extension activity | induces differentiation | more effective than NGF
